From patent US11220504B2, “Pyrrolo[3,2-d] pyrimidine derivatives for the treatment of viral infections and other diseases” (JANSSEN SCIENCES IRELAND UNLIMITED COMPANY, priority 2012, dated 2022) come the findings set out here.

Some results are limits rather than exact numbers.

The target of one assay is T1, human TLR7 (Homo sapiens, UniProt Q9NYK1).
T1 construct: expressed in transfected cells; host or cells: HEK293 cells, transient transfection with CMV-TLR7 plasmid and NFκB-luc plasmid
T1 sequence (Q9NYK1 27-1049): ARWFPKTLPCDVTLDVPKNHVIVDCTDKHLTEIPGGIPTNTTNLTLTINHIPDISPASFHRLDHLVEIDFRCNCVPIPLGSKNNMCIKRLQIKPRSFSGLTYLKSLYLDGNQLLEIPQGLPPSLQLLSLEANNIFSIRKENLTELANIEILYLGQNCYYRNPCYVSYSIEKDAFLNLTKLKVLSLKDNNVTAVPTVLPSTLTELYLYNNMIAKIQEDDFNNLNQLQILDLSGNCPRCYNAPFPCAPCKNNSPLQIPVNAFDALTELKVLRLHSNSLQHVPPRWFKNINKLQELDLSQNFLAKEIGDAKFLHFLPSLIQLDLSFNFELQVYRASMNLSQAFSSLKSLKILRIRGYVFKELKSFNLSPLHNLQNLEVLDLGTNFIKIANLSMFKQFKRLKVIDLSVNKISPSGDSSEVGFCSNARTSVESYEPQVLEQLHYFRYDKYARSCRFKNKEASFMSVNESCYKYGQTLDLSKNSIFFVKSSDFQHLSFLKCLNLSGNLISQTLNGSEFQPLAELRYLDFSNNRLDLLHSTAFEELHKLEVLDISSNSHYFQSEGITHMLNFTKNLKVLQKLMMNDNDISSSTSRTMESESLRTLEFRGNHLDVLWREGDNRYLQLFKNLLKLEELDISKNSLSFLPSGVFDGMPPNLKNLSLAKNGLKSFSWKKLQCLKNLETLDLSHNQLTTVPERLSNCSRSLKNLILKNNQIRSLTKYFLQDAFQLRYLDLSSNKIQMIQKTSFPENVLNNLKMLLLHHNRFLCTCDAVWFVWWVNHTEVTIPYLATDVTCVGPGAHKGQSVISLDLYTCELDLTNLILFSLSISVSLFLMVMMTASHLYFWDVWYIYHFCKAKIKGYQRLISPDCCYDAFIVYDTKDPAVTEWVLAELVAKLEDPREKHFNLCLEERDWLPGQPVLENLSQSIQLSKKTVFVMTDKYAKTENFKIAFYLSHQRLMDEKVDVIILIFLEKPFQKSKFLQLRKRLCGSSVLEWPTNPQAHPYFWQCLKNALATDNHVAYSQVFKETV
As to the kind of experiment: TLR7 cellular reporter assay (HEK293, NFκB-luc). It is filed as cell-based. The settings on record: HEK293 cells transfected with CMV-TLR7 and NFκB-luc, 6 hours incubation; lowest effective concentration. In a few lines: (§1)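 HEK293 cells transiently transfected with receptor expression vector plus NFκB-luciferase reporter, exposed to compound (added in 4% DMSO) for 6 hours at 37° C, 5% CO2. Luciferase activity measured by luminescence; dose-response curves from quadruplicate measurements.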

In the next assay the target is T2, human TLR8 (Homo sapiens, UniProt Q9NR97).
T2 construct: expressed in transfected cells; host or cells: HEK293 cells, transient transfection with TLR8 plasmid and NFκB-luc plasmid
T2 sequence (Q9NR97 27-1041): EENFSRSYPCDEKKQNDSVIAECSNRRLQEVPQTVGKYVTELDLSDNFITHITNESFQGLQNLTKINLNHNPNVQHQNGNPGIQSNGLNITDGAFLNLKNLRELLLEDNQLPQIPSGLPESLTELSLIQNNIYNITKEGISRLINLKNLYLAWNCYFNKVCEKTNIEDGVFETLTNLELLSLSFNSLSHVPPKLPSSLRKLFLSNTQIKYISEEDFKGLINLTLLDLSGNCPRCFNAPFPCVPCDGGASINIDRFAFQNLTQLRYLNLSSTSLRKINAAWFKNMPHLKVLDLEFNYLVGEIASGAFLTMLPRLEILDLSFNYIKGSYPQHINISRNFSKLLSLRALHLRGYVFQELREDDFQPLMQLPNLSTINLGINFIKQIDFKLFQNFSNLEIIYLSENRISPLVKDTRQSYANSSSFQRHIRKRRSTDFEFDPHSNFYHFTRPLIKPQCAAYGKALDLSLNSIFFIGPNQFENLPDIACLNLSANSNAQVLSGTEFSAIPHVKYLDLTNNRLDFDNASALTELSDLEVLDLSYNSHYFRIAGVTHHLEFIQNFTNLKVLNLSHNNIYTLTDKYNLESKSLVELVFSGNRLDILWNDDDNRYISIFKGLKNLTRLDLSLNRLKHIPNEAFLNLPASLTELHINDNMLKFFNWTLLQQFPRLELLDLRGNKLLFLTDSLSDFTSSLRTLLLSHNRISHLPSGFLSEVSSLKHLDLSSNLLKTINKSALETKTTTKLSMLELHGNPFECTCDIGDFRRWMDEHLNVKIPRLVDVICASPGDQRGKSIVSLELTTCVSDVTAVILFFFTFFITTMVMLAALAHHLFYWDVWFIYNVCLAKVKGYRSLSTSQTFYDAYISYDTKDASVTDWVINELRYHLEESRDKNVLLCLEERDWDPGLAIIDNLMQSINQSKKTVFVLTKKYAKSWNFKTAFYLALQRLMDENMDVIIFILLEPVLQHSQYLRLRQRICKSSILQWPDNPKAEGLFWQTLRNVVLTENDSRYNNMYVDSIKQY
As to the kind of experiment: TLR8 cellular reporter assay (HEK293, NFκB-luc). The settings on record: HEK293 cells transfected with CMV-TLR8 and NFκB-luc, 6 hours incubation; lowest effective concentration. It is filed as cell-based. A digest of the protocol:
as §1

The test system of assay [1] is interferon-stimulated responsive elements (ISRE). As to the kind of experiment: Activation of ISRE promoter elements by conditioned media from PBMC (HEK-ISREluc). The conditions noted are these: conditioned media from PBMC transferred to HEK-ISREluc cells, 24 hours, lowest effective concentration; for minimal effective concentration: Homo sapiens, read-out: PBMC LEC. It is filed as cell-based, human. In a few lines: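 Human PBMCs (≥2 donors, RPMI + 10% human AB serum, 2×10^5 cells/well) incubated overnight with compound; supernatant transferred to HEK293 cells stably carrying pISRE-Luc for 24 h, then luciferase read. LEC = compound concentration on PBMCs giving luciferase signal at least two-fold above assay SD; recombinant IFN-α-2a standard.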

Turning to `CCCCNc1nc(N)nc2c(C)cn(Cc3ccccc3)c12` [Compound 54], the “TLR7 LEC” value at human TLR7 was determined as 1.68 µM. In addition, the “TLR8 LEC” value on human TLR8 is over 25 µM. In addition, the minimal effective concentration in assay [1] came to 0.9 µM.
With `CCCCNc1nc(N)nc2ccn(Cc3ncccn3)c12` [Compound 56], the “TLR7 LEC” value at human TLR7 was determined as 0.99 µM. For the same molecule, the “TLR8 LEC” value at human TLR8 came out at 17.5 µM. Further, the minimal effective concentration in assay [1] is 0.07 µM.
For `CCCCNc1nc(N)nc2c(C)cn(Cc3ccccc3)c12` [Compound 58], the “TLR7 LEC” value on human TLR7 is 0.24 µM. Moreover, the “TLR8 LEC” value at human TLR8 is over 25 µM. In assay [1], the “PBMC LEC” value turned out to be 0.90 µM.
Consider `Nc1nc(NCc2nccs2)c2c(ccn2Cc2ccccc2)n1` [Compound 60], for which the “TLR7 LEC” value at human TLR7 amounted to 0.39 µM. Besides, the “TLR8 LEC” value at human TLR8 was over 25 µM. Moreover, in assay [1], the minimal effective concentration came out at 0.33 µM.
Turning to `Nc1nc(NCc2ccccn2)c2c(ccn2Cc2ccccc2)n1` [Compound 61], the “TLR7 LEC” value at human TLR7 is 1.01 µM. The “TLR8 LEC” value at human TLR8 was over 25 µM. Further, in assay [1], the minimal effective concentration was 1.95 µM.
The matching figures for `CCCCNc1nc(N)nc2ccn(CC3CCC3)c12` [Compound 62]: 0.06 µM, 0.9934 µM and 0.06 µM.
The matching figures for `CCCCNc1nc(N)nc2cc(C)n(Cc3ccccc3)c12` [Compound 63]: 0.67 µM, over 25 µM and 0.18 µM.
For `CCCCNc1nc(N)nc2ccn(Cc3nccc4ccccc34)c12` [Compound 65], in that order: 0.1687 µM, over 25 µM and 0.08 µM.
In the case of `CCCCNc1nc(N)nc2ccn(CCn3cccc3)c12` [Compound 66], at human TLR7, the “TLR7 LEC” value came out at 2.57 µM. Further, the “TLR8 LEC” value on human TLR8 was found to be 3.96 µM. In assay [1], the minimal effective concentration stood at 0.91 µM.
As for `CCCCNc1nc(N)nc2ccn(CCN3CCOCC3)c12` [Compound 67], the “TLR7 LEC” value at human TLR7 was 0.056 µM. In addition, at human TLR8, the “TLR8 LEC” value worked out at 6.71 µM. Moreover, the minimal effective concentration in assay [1] came out at 0.04 µM.
Regarding `CCCCNc1nc(N)nc2ccn(Cc3ccccc3OC)c12` [Compound 69], the “TLR7 LEC” value on human TLR7 stood at 0.004 µM. Besides, on human TLR8, the “TLR8 LEC” value was 0.71 µM. The minimal effective concentration in assay [1] was 0.002 µM.
`CCCCNc1nc(N)nc2ccn(CC3CCCO3)c12` (stereo not drawn) [Compound 71]: the “TLR7 LEC” value on human TLR7 is 0.32 µM. For the same molecule, the “TLR8 LEC” value at human TLR8 was 4.68 µM. In assay [1], the minimal effective concentration turned out to be 0.24 µM.
The matching figures for `CCCCNc1nc(N)nc2ccn(Cc3cccs3)c12` [Compound 73]: 0.28 µM, over 25 µM and 0.13 µM.
The matching figures for `CCCC(C)Nc1nc(N)nc2ccn(Cc3ccccc3F)c12` (stereo not drawn) [Compound 74]: 0.10 µM, over 25 µM and 0.04 µM.
For `CCCC(C)Nc1nc(N)nc2ccn(Cc3ccc(OC)cc3)c12` (stereo not drawn) [Compound 75], in that order: 0.04 µM, over 25 µM and 0.04 µM.
`CCCC[C@@H](CCO)Nc1nc(N)nc2ccn(Cc3ccccc3F)c12` [Compound 76]: the “TLR7 LEC” value at human TLR7 is 0.01 µM. The “TLR8 LEC” value on human TLR8 is 4.09 µM. Also, the minimal effective concentration in assay [1] is 0.007 µM.
Take `CCCC[C@@H](CCO)Nc1nc(N)nc2ccn(Cc3ccc(OC)cc3)c12` [Compound 77]: at human TLR7, the “TLR7 LEC” value came to 0.008 µM. Also, at human TLR8, the “TLR8 LEC” value stood at 2.62 µM. The minimal effective concentration in assay [1] worked out at 0.002 µM.
For `CCCC[C@@H](CCO)Nc1nc(N)nc2ccn(Cc3ccccc3OC)c12` [Compound 78], in that order: 0.0004 µM, 0.5577 µM and under 0.0004 µM.
Take `CCCC(C)Nc1nc(N)nc2ccn(Cc3ccccc3OC)c12` (stereo not drawn) [Compound 79]: the “TLR7 LEC” value on human TLR7 stood at 0.004 µM. Also, the “TLR8 LEC” value on human TLR8 is 0.94 µM. In addition, the minimal effective concentration in assay [1] was found to be 0.001 µM.
For `CCC[C@@H](CCO)Nc1nc(N)nc2ccn(Cc3ccccc3OC)c12` [Compound 80], the “TLR7 LEC” value at human TLR7 was under 0.0006 µM. The “TLR8 LEC” value on human TLR8 was determined as 0.689 µM. Also, in assay [1], the minimal effective concentration was under 0.0004 µM.
For `CCC[C@@H](CCO)Nc1nc(N)nc2ccn(Cc3ccccc3F)c12` [Compound 81], in that order: 0.01 µM, 22.02 µM and 0.002 µM.
Regarding `CCC[C@@H](CCO)Nc1nc(N)nc2ccn(CC3CCC3)c12` [Compound 82], at human TLR7, the “TLR7 LEC” value worked out at 0.07 µM. Moreover, the “TLR8 LEC” value on human TLR8 was determined as 0.57 µM. For the same molecule, the minimal effective concentration in assay [1] was determined as 0.01 µM.
As to `CCCCn1ccc2nc(N)nc(NCc3ccccc3)c21` [Compound 83], the “TLR7 LEC” value on human TLR7 came to 1.57 µM. Moreover, the “TLR8 LEC” value at human TLR8 is over 25 µM. Further, the minimal effective concentration in assay [1] turned out to be 2.3 µM.
In the case of `CCCC[C@@H](CCO)Nc1nc(N)nc2ccn(CC3CCC3)c12` [Compound 84], the “TLR7 LEC” value at human TLR7 is 0.04 µM. Moreover, the “TLR8 LEC” value at human TLR8 worked out at 1.14 µM. Further, in assay [1], the minimal effective concentration is 0.01 µM.
For `CCC[C@@H](CCO)Nc1nc(N)nc2ccn(Cc3cscn3)c12` [Compound 85], in that order: 0.03 µM, 10.14 µM and 0.002 µM.
In the case of `CCCCNc1nc(N)nc2cc(F)n(Cc3ccccc3)c12` [Compound 86], the “TLR7 LEC” value at human TLR7 came out at 1.63 µM. The “TLR8 LEC” value on human TLR8 was over 25 µM. Moreover, the minimal effective concentration in assay [1] turned out to be 0.47 µM.
For `CCC[C@@H](CCO)Nc1nc(N)nc2ccn(CC3CCCCC3)c12` [Compound 87], in that order: 0.01 µM, over 25 µM and 0.008 µM.
For `CCCC[C@@H](CCO)Nc1nc(N)nc2ccn(Cc3cscn3)c12` [Compound 88], in that order: 0.01 µM, 2.46 µM and 0.0006 µM.
